Like-named read-outs stand apart in the source and are kept apart here.
What was measured:
[1] = test system: CCRF-CEM human T-cell acute lymphoblastic leukemia cell line; test: XTT cytotoxicity (cell growth inhibition), CCRF-CEM
Procedure, shortened: (§1)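 XTT microculture tetrazolium readout, duplicate wells: 72 h compound incubation, then PMS-XTT (0.025 mM PMS) added, 4 h 37 °C, A450 and A630 measured. Suspension cells in RPMI-1640/10% FBS, 5×10^4 cells/mL; resistant sublines maintained with selecting drug.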

CCRF-CEM/Taxol® = test: cells; format: cell-based, human; conditions: for IC50: XTT, 72 h, read-out: IC50
Procedure, shortened: as §1

CCRF-CEM/VBL100 = test: cells; format: cell-based, human; conditions: for fold resistance (cross-resistance) vs parent CCRF-CEM: CCRF-CEM/VBL100 MDR cells; for IC50: read-out: IC50; for (B)/(A) IC50 ratio: CCRF-CEM/VBL100 vs CCRF-CEM
Procedure, shortened: as §1

CCRF-CEM/VM1 = test: cells; format: cell-based, human; conditions: for IC50: read-out: IC50; for (D)/(A) IC50 ratio: CCRF-CEM/VM1 vs CCRF-CEM
Procedure, shortened: as §1

DC-3F/ADX = test: cells; format: cell-based, hamster; conditions: for fold resistance vs parent DC-3F: DC-3F/ADX cells; for folds of resistance (IC50 ratio vs parent cell line) / IC50: Table 1C; for folds of resistance (IC50 ratio vs parent cell line): DC-3F/ADX vs DC-3F; for IC50: SRB, 72 h, read-out: IC50
Procedure, shortened: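 Cell protein content measured by sulforhodamine B staining after trichloroacetic acid fixation, read at 570 nm; duplicate runs of six to seven concentrations fitted by median-effect analysis. Lines are actinomycin D-resistant DC-3F hamster lung sublines (ADII, ADX), kept under selecting drug in RPMI 1640-10% FBS.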

murine leukemic P388/0 = test: XTT cytotoxicity, P388/0; format: cell-based; conditions: Table 1C; XTT, 72 h; read-out: IC50
Procedure, shortened: as §1

[2] = test system: human neuroblastoma SK-N-As; test: SRB cytotoxicity, SK-N-As; format: cell-based; conditions: Table 1C; SRB, 72 h; read-out: IC50
Procedure, shortened: (§2)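 Cellular protein content measured with sulforhodamine B after trichloroacetic acid fixation, read at 570 nm. Each duplicate run used six to seven concentrations, analysed by the median-effect method. Cells were cultured at 37 °C, 5% CO2 in RPMI 1640-10% FBS, and drug-resistant lines were maintained with their selecting agent.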

SK-N-FI = test: cells; format: cell-based, human; conditions: for folds of resistance (IC50 ratio vs parent cell line) / IC50: Table 1C; for folds of resistance (IC50 ratio vs parent cell line): SK-N-FI vs SK-N-As; for IC50: SRB, 72 h, read-out: IC50
Procedure, shortened: as §2

MCF-7/Adr = test: cells; format: cell-based, human; conditions: for folds of resistance (IC50 ratio vs parent cell line) / IC50: Table 1C; for folds of resistance (IC50 ratio vs parent cell line): MCF-7/Adr vs MCF-7; for IC50: SRB, 72 h, read-out: IC50
Procedure, shortened: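 Sulforhodamine B readout: TCA-fixed cultures stained 30 min with 0.4% SRB, bound dye extracted in unbuffered Tris and read at 570 nm. Duplicate experiments, six to seven drug concentrations per run.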

Human CCRF-CEM Xenograft = test: CCRF-CEM xenograft in scid mice; format: in vivo, CB-17 scid mice; conditions: for mice died of drug toxicity: 7 mice
[3] = dose 0.7 i.p. QD d7-10,14,15, day 12
[4] = dose 0.7 i.p. QD d7-10,14,15, day 17
[5] = dose 0.7 i.p. QD d7-10,14,15, day 22
[6] = dose 1.0 i.p. QD d7-10,14,15, day 12
[7] = dose 1.0 i.p. QD d7-10,14,15, day 17
[8] = dose 1.0 i.p. QD d7-10,14,15, day 22

## C/C1=C/C[C@@H](/C(C)=C/c2csc(C)n2)OC(=O)C[C@H](O)C(C)(C)C(=O)[C@H](C)[C@@H](O)[C@@H](C)CCC1 [Desoxyepothilone B, desoxyepothilone B]
[1]
  IC50: 9.5 nM
[1]; Table 1, XTT
  IC50: 9 nM
[1]; Table 1A, XTT, 72 h
  IC50: 9.5 nM
[1]; Table 6, single determinations
  IC50: 9.5 nM
[1]; Table 7, CEM
  IC50: 9.5 nM
CCRF-CEM/Taxol®
  (C)/(A) IC50 ratio: 1.7
CCRF-CEM/Taxol®; Table 1A
  IC50: 16.2 nM
CCRF-CEM/VBL100; listed as dEpoB
  fold resistance (cross-resistance) vs parent CCRF-CEM: 1.8 fold
CCRF-CEM/VBL100; Table 1, XTT
  IC50: 17 nM
CCRF-CEM/VBL100; Table 1A
  (B)/(A) IC50 ratio: 1.8
CCRF-CEM/VBL100; Table 1A, XTT, 72 h
  IC50: 17 nM
CCRF-CEM/VBL100; Table 6, single determinations
  IC50: 17 nM
CCRF-CEM/VBL100; Table 7, CEM/VBL
  IC50: 16.9 nM
CCRF-CEM/VBL100
  IC50: 17 nM
CCRF-CEM/VM1; Table 1, XTT
  IC50: 14 nM
CCRF-CEM/VM1; Table 1A
  (D)/(A) IC50 ratio: 1.5
CCRF-CEM/VM1; Table 1A, XTT, 72 h
  IC50: 14 nM
CCRF-CEM/VM1; Table 6, single determinations
  IC50: 14 nM
DC-3F/ADX
  fold resistance vs parent DC-3F: 0.9 fold
  folds of resistance (IC50 ratio vs parent cell line): (0.9x)
  IC50: 0.91 nM
Murine leukemic P388/0
  IC50: 6.8 nM
[2]
  IC50: 21 nM
SK-N-FI
  folds of resistance (IC50 ratio vs parent cell line): (2.2x)
  IC50: 46 nM
MCF-7/Adr; MCF-7/Adr cells, listed as dEpoB
  fold resistance vs parent MCF-7: 2.4 fold
MCF-7/Adr
  folds of resistance (IC50 ratio vs parent cell line): (2.4x)
  IC50: 7.1 nM

## C/C(=C\c1csc(C)n1)[C@@H]1C[C@@H]2O[C@]2(C)CCC[C@H](C)[C@H](O)[C@@H](C)C(=O)C(C)(C)[C@@H](O)CC(=O)O1 [Epothilone B, epothilone B]
[1]
  IC50: 0.35 nM
[1]; CCRF-CEM cells
  fold more potent than Epo A: 6 fold
  fold more potent than Taxol: 10 fold
[1]; CCRF-CEM leukemic cells
  Rel. Value (potency relative to Epo B): 1
[1]; Table 1, XTT
  IC50: 0.4 nM
CCRF-CEM/Taxol®; Table 1A, CCRF-CEM/Taxol vs CCRF-CEM
  (C)/(A) IC50 ratio: 3.1
CCRF-CEM/Taxol®; Table 1A
  IC50: 1.1 nM
CCRF-CEM/VBL100
  fold resistance (cross-resistance) vs parent CCRF-CEM: 5 fold
  IC50: 2 nM
CCRF-CEM/VBL100; listed as EpoB
  fold resistance (cross-resistance) vs parent CCRF-CEM: 6.1 fold
CCRF-CEM/VBL100; CCRF-CEM/VBL MDR cells
  Potency in parentheses relative to Epo B in CCRF-CEM cells: 1/6
  Potency in square brackets relative to Epo B in CCRF-CEM/VBL MDR cells: 1
CCRF-CEM/VBL100; Table 1, XTT
  IC50: 3 nM
CCRF-CEM/VBL100; Table 1A
  (B)/(A) IC50 ratio: 6.1
CCRF-CEM/VBL100; listed as Epo B
  IC50: 2.1 nM
CCRF-CEM/VM1; Table 1, XTT
  IC50: 2 nM
CCRF-CEM/VM1; Table 1A
  (D)/(A) IC50 ratio: 3.6
CCRF-CEM/VM1; Table 1A, XTT, 72 h
  IC50: 1.3 nM
DC-3F/ADX; listed as EpoB
  fold resistance vs parent DC-3F: 28 fold
DC-3F/ADX
  folds of resistance (IC50 ratio vs parent cell line): (28x)
  IC50: 17 nM
Murine leukemic P388/0
  IC50: 0.29 nM
[2]
  IC50: 4 nM
SK-N-FI; SK-N-F1 cells
  fold resistance vs parent SK-N-As: 25 fold
SK-N-FI
  folds of resistance (IC50 ratio vs parent cell line): (25x)
  IC50: 10 nM
MCF-7/Adr
  folds of resistance (IC50 ratio vs parent cell line): (5.4x)
  IC50: 2.7 nM
Human CCRF-CEM Xenograft; Epo B dose 0.7 i.p., day 19 & 20
  mice died of drug toxicity: ^4.Two mice died of drug toxicity on day 19 & 20.
Human CCRF-CEM Xenograft; Epo B dose 1.0 i.p., day 18, 19 and 21
  mice died of drug toxicity: ^5.Three mice died of drug toxicity on day 18, 19 and 21.
Human CCRF-CEM Xenograft; dose 0.7 i.p. QD d7-10,14,15, day 7
  Average weight change: −0.1
Human CCRF-CEM Xenograft; [3]
  Average tumor volume (control = 1.00): 0.53
  Average weight change: −0.7
Human CCRF-CEM Xenograft; [4]
  Average tumor volume (control = 1.00): 0.48
  Average weight change: −1.4
Human CCRF-CEM Xenograft; [5]
  Average tumor volume (control = 1.00): 0.46
  Average weight change: +0.3
Human CCRF-CEM Xenograft; dose 1.0 i.p. QD d7-10,14,15, day 7
  Average weight change: +0.1
Human CCRF-CEM Xenograft; [6]
  Average tumor volume (control = 1.00): 0.46
  Average weight change: −1.5
Human CCRF-CEM Xenograft; [7]
  Average tumor volume (control = 1.00): 0.35
  Average weight change: −2.4
Human CCRF-CEM Xenograft; [8]
  Average tumor volume (control = 1.00): 0.43
  Average weight change: +0.1

— US6603023B2 (priority 1996, dated 2003)
